Reference: patent publication US20250051407A1, “De novo designed sequence-specific DNA binding proteins” (University of Washington, priority 2023, published 2025)
“Also recorded” adds a separate entry of the source.

Columns and labels:
[1] = test system: 13 unique dsDNA targets; test: All-by-all yeast surface display screen of DBP design hits; type: binding; conditions: for Number of the 13 tested DNA target sequences preferentially bound: 1 μM dsDNA with avidity, including designed target sequence; for Target sequence preference: 13 unique dsDNA targets; for Binding specificity versus design models: all-by-all screen with Rosetta-predicted motifs
Protocol: And an all-by-all screen of DBP design hits to 13 unique dsDNA targets was performed (FIG. 4, table 2). […] To try to understand these observed binding preferences, each tested DNA sequence was threaded onto each design complex model at all possible base pair alignments, the alternative complex models were relaxed with Rosetta™, and the model with the most favorable Rosetta™ ΔΔG was selected.
Saccharomyces cerevisiae EBY100 strain cultures were grown in C-Trp-Ura medium supplemented with 2% (w/v) glucose. For induction of expression, yeast cells were centrifuged at 6,000 g for 1 min and resuspended in SGCAA medium supplemented with 0.2% (w/v) glucose at the cell density of 1×10^7 cells per ml and induced at 30° C. for 16-24 h. Cells were washed with PBSF (PBS with 1% (w/v) BSA) and labeled with biotinylated targets using two labeling methods: with-avidity and without-avidity labeling. For the with-avidity method, the cells were incubated with biotinylated target, together with anti-c-Myc fluorescein isothiocyanate (FITC, Miltenyi Biotech) and streptavidin-phycoerythrin (SAPE, ThermoFisher). The concentration of SAPE in the with-avidity method was used at one-quarter of the concentration of the biotinylated targets. For the without-avidity method, the cells were first incubated with biotinylated targets, washed and secondarily labeled with SAPE and FITC.
(§1) For yeast display characterization of individual designs, including competition assays, DNA sequences encoding the proteins of interest were purchased as Integrated DNA Technologies (IDT) E-Blocks™, transformed into yeast cells, and incubated in 96 well culture plates. Labeling with biotinylated dsDNA targets and SAPE/FITC was performed in a 96 well plate format. For yeast display competition assays, labeling was performed without avidity using 1 μM biotinylated dsDNA duplex oligos and an excess of 8 μM non-biotinylated competitor dsDNA duplex oligos. […] Flow cytometry analysis was performed with an Attune NxT™ flow cytometer with autosampler. Flow cytometry data analysis was performed using custom python code and the CytoFlow™ python package. For each individual sample, gating of the expression population was performed using the CytoFlow™ Gaussian Mixture Model and the ratio of SAPE channel intensity to FITC channel intensity (binding signal/expression signal) was calculated for all gated expression events of the sample.

[2] = test system: dsDNA target; test: Site saturation mutagenesis (SSM) library sorting, protein-side footprinting; type: binding; conditions: for Substitutions improving binding: every residue substituted with each of the 20 amino acids; for Tolerance of positions to substitution: interface, core and surface positions
Protocol: As disclosed in the examples that follow, the contributions of each amino acid to binding for additional designs, high-resolution footprints of the binding surface as generated was assessed by sorting site saturation mutagenesis libraries (SSMs) in which every residue was substituted with each of the 20 amino acids one at a time for DBPs 1, 6, and 35. Permissible substitutions for many of the polypeptides of the disclosure are provided in columns 2 and 3 Tables 4-19.
Thus, in some embodiments, substitutions relative to the reference sequence are selected from residues listed in columns 2 or 3 of one of Tables 4-19. In other embodiments, substitutions relative to the reference sequence are selected from residues listed in column 2 of one of Tables 4-19. Column 2 lists the “best” substitutions, which retain or improve DNA target binding activity relative to the reference sequence. Column 3 lists “permissible” substitutions, which retain binding to the DNA target sequence.
To assess the contributions of each amino acid to binding for additional designs, high-resolution footprints of the binding surface as generated by sorting site saturation mutagenesis libraries (SSMs) in which every residue was substituted with each of the 20 amino acids one at a time for DBPs 1, 6, and 35. […] In a small number of cases, substitutions led to notable improvements in binding affinity.
Cell sorting of labeled yeast pools was performed using a Sony SH800S cell sorter. Libraries of designs were sorted using the with-avidity method for the first few rounds of screening to exclude weak binder candidates, followed by several without-avidity sorts with different concentrations of targets. For SSM libraries, two rounds of with-avidity sorts were applied and in the third round of screening the libraries were titrated with a series of decreasing concentrations of targets to enrich mutants with beneficial mutations.
The Pear program was used to assemble the fastq files from the deep sequencing runs. Translated, assembled reads were matched against the ordered design to determine the number of counts for each design in each pool. In each sequenced pool, binder enrichment was calculated by determining the percent of reads for each binder design in the pool and dividing this number by the same value in the naive expression sort pool. […] For SSM libraries, apparent SC50 was estimated using the fitting procedure described in Longxing et al. (15)

[3] = test system: biotinylated target dsDNA with non-biotinylated competitor dsDNA; test: Yeast display competition assay with base-substituted competitor dsDNA; type: binding; conditions: for DNA binding site specificity: all possible base mutations at each position of the competitor oligo
Excerpt: We used a yeast display competition assay to characterize the DNA binding site specificity of a subset of the designs (FIG. 1A-E, left; FIG. 5). Addition of non-biotinylated competitor dsDNA to biotinylated target sequence reduced binding signal by flow cytometry (FIG. 1A-E, middle). […] For example, in DBP6 (FIG. 1A) R31 and R36 in the design model form bidentate hydrogen bonds with the guanines of base pair positions G12 and C9, respectively, while T32 forms a hydrogen bond with C10.
as §1

[4] = test system: synTF-specific cis-regulatory elements (CRE) in HEK293T cells; test: Transcriptional activation by synTFs in HEK293T cells (ENGRAM); type: cell-based; conditions: DBP fused to GCN4 dimerization domain and VP64; HEK293T cells expressing PEmax; dependent on spacing between motifs
Excerpt: Next, we investigated whether the DBPs can be used as activators in mammalian cells. A set of synthetic transcription factors (synTFs) were created by fusing the GCN4 dimerization domain and the VP64 activation domain to the C-termini of DBPs 9, 35opt, 48, 57, and 60 which recognize 3 unique motifs. The dimerization domain allows the DBPs to recognize a palindromic target sequence consisting of two binding motifs, improving the binding affinity to the DNA sequence (FIG. 2C). We created synTF specific cis-regulatory elements (CRE) with 4 repeats spaced by 6 bp to drive the expression of downstream genes, and used the ENGRAM (43) recording technology to measure the activity of the synTFs in HEK293 cells. In ENGRAM, each CRE drives the expression of a uniquely barcoded pegRNA, which upon expression is recorded into the DNA TAPE at the HEK3 locus by prime-editor (PEmax); the activity of individual synTFs can be measured as the abundance of the barcode on the DNA TAPE (FIG. 2C). We first tested 3 different spacings-1 bp, 3 bp, and 5 bp-between the palindromic binding motifs to maximize the recorder activity. 3 synTF specific recorders and 1 TCF-LEF-recorder (negative control) were mixed with ratio 2:2:2:1 and co-transfected with synTFs into the HEK293T cells expressing PEmax. Cells were harvested and analyzed 2 days post-transfection. After analyzing the barcode abundance on the DNA TAPE, we observed 3-5 fold activation for DBP9/DBP35 and DBP57/DBP60 (FIG. 2D).
HEK293T cells expressing PEmax™ were cultured in DMEM High glucose (GIBCO), supplemented with 10% Fetal Bovine Serum (Rocky Mountain Biologicals) and 1% penicillin-streptomycin (GIBCO). Cells were grown with 5% CO2 at 37° C. 1×10^5 cells were seeded on a 48-well plate a day before transfection. Enhancer plasmid and binder plasmid were mixed with a ratio of 2:1. Enhancer variants and background control were mixed with a ratio of 2:2:2:1. A total of 300 ng of plasmid were transfected using Lipofectamine™ 3000 (ThermoFisher, L3000015), following the manufacturer's protocol. Cells were harvested 2 days post-transfection. Genomic DNA was extracted based on the protocol described earlier (43). Briefly, cells were lysed using freshly prepared lysis buffer (10 mM Tris-HCl, pH 7.5; 0.05% SDS; 25 µg/ml protease (ThermoFisher)) for each well. The genomic DNA mixture was incubated at 50° C. for 1 h, followed by an 80° C. enzyme inactivation step for 30 min. The DNA TAPE was amplified from the genomic DNA directly for next generation sequencing. Recorded information was extracted via custom analysis code. Each enhancer has a unique barcode representing its activity. Transcription activation was measured as the fold change in the barcode abundance relative to the negative control barcode. All measurements were performed in triplicates.

| Molecule | Number of the 13 tested DNA target sequences preferentially bound [1] | Target sequence preference [1] | Binding specificity versus design models [1] | Substitutions improving binding [2] | Tolerance of positions to substitution [2] | DNA binding site specificity [3] | Fold activation of synTFs measured as normalized barcode abundance in the DNA TAPE [4] | Number of base positions of specificity [3] [base positions] |
| --- | --- | --- | --- | --- | --- | --- | --- | --- |
| DBP6: designed DNA-binding protein, SEQ ID NO: 4, DNA target B (DWAARAAAARRLRKERGLTQAELGELAGVSRTTVSRIELGRPDVSQASVDAVLAVL) | less than 3 | strong preference for only their designed target sequence | bound with specificity closely consistent with the design models | relatively few mutations at interface positions improved binding with the exceptions of L39, D43, and 548 | most positions at the interface and the core were largely conserved while positions at the surface were more tolerant of substitutions | specificity for a 6 nucleotide stretch (TGCACA) with peripheral dependence on T8 and A13; also recorded: specificities consistent with the designed sidechain-base interactions; also recorded: specificity for the GCxG motif | – | – |
| DBP1: designed DNA-binding protein, SEQ ID NO: 1, DNA target A (TARELEVAALIAQGRSNREIAEELNISERTVERYVRRILRKLGLRNRAQIAAWVIRRS) | – | strong preference for 2 or 3 of the sequence targets | – | – | most positions at the interface and the core were largely conserved while positions at the surface were more tolerant of substitutions | specificities consistent with the designed sidechain-base interactions | – | – |
| DBP35: designed DNA-binding protein, SEQ ID NO: 15, DNA target B (protein) GFGRAVKEKRKELGLTQKEFAEKAGLSRRTIIRIERGYIVPPKATKEKIAKALGTSVEELEQA | less than 3 | – | bound with specificity closely consistent with the design models | substitutions of R33 and K18 improved binding | most positions at the interface and the core were largely conserved while positions at the surface were more tolerant of substitutions | specificities consistent with the designed sidechain-base interactions | 3-5 fold | 3 |
